Here are results for 14 compounds from patent US12258327B2, “5-membered heteroaryl-containing aminopyridine compounds as EGFR inhibitors” (YUHAN CORPORATION, priority 2021, dated 2025).

Like-named read-outs stand apart in the source and are kept apart here. Where only a bound is given, the exact number is not on record here.

Test [1] has as its target EGFR wildtype (WT) (Homo sapiens, UniProt P00533). Description: Biochemical EGFR kinase assay (Lance Ultra TR-FRET), wildtype. In outline: (§1)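 In this biochemical assay, phosphorylation after a one-hour room-temperature reaction was detected with europium-labelled anti-phosphopeptide antibody at 2 nM final concentration.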
(In general: TR-FRET usually uses a lanthanide donor and a delayed reading to cut background.)

Test [2] has as its target EGFR L858R/C797S (Homo sapiens, UniProt P00533, C797S/L858R). Put plainly: Biochemical EGFR kinase assay (Lance Ultra TR-FRET), double mutant L858R/C797S. In short, it runs like this:
as §1

The target of test [3] is EGFR del19/T790M/C797S (Homo sapiens, UniProt P00533, C797S/DEL746-750/T790M). Put plainly: Biochemical EGFR kinase assay (Lance Ultra TR-FRET), triple mutant del19/T790M/C797S. In outline: as §1
Sequence of EGFR del19/T790M/C797S (P00533 with tags, fused parts or gaps DEL746-750/T790M/C797S): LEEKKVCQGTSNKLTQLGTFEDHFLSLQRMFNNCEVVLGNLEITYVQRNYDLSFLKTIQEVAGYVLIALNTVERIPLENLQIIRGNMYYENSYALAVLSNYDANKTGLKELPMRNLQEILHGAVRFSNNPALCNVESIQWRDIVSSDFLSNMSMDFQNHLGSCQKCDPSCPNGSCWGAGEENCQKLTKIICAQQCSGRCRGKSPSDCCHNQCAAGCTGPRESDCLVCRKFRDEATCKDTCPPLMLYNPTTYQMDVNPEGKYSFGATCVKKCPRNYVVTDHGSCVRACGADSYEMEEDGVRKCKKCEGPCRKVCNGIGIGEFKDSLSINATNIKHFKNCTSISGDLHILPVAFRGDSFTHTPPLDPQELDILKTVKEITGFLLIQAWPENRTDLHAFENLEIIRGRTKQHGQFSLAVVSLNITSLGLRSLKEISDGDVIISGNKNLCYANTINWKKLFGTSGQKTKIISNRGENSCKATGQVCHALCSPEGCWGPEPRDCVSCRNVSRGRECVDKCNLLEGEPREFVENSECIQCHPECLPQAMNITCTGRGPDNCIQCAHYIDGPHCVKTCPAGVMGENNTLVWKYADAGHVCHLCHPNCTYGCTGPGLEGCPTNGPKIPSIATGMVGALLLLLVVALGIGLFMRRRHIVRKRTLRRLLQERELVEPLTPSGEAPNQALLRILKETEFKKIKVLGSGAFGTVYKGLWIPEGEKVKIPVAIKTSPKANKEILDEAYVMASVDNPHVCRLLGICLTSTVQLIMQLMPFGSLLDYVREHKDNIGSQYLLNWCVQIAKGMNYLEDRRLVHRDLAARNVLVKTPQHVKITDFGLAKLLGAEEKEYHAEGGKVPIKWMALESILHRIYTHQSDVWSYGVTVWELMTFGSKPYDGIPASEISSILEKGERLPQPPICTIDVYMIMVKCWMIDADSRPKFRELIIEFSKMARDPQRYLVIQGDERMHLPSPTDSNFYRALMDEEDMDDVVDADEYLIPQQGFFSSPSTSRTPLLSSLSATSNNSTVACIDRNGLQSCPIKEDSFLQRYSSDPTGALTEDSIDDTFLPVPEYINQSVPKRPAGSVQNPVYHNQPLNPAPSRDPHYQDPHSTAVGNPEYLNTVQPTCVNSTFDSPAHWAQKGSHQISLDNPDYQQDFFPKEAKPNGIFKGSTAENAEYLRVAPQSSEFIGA
In test [4] the target is EGFR del19/C797S (Homo sapiens, UniProt P00533, C797S/DEL746-750). Put plainly: Biochemical EGFR kinase assay (Lance Ultra TR-FRET), double mutant del19/C797S. In outline:
as §1

Test [5] addresses EGFR L858R/T790M/C797S (Homo sapiens, UniProt P00533, C797S/L858R/T790M). Put plainly: Biochemical EGFR kinase assay (Lance Ultra TR-FRET), triple mutant L858R/T790M/C797S. In short, it runs like this:
as §1

The mark [6] stands for this setting: IC50 WT (nM) 100 μM ATP, 100 μM ATP.
The mark [7] stands for this setting: Km ATP, read-out: IC50 WT (nM) Km ATP.
The mark [8] stands for this setting: IC50 L858R/C797S (nM) 100 μM ATP, 100 μM ATP.
Where [9] appears, read: Km ATP, read-out: IC50 L858R/C797S (nM) Km ATP.
Where [10] appears, read: IC50 del19/T790M/C797S (nM) 100 μM ATP, 100 μM ATP.
Setting [11] is: Km ATP, read-out: IC50 del19/T790M/C797S (nM) Km ATP.
The mark [12] stands for this setting: IC50 del19/C797S (nM) 100 μM ATP, 100 μM ATP.
The mark [13] stands for this setting: Km ATP, read-out: IC50 del19/C797S (nM) Km ATP.
Setting [14] is: IC50 L858R/T790M/C797S (nM) 100 μM ATP, 100 μM ATP.
[15] abbreviates: Km ATP, read-out: IC50 L858R/T790M/C797S (nM) Km ATP.

Sequence of EGFR L858R/T790M/C797S (P00533 25-1210 T790M/C797S/L858R): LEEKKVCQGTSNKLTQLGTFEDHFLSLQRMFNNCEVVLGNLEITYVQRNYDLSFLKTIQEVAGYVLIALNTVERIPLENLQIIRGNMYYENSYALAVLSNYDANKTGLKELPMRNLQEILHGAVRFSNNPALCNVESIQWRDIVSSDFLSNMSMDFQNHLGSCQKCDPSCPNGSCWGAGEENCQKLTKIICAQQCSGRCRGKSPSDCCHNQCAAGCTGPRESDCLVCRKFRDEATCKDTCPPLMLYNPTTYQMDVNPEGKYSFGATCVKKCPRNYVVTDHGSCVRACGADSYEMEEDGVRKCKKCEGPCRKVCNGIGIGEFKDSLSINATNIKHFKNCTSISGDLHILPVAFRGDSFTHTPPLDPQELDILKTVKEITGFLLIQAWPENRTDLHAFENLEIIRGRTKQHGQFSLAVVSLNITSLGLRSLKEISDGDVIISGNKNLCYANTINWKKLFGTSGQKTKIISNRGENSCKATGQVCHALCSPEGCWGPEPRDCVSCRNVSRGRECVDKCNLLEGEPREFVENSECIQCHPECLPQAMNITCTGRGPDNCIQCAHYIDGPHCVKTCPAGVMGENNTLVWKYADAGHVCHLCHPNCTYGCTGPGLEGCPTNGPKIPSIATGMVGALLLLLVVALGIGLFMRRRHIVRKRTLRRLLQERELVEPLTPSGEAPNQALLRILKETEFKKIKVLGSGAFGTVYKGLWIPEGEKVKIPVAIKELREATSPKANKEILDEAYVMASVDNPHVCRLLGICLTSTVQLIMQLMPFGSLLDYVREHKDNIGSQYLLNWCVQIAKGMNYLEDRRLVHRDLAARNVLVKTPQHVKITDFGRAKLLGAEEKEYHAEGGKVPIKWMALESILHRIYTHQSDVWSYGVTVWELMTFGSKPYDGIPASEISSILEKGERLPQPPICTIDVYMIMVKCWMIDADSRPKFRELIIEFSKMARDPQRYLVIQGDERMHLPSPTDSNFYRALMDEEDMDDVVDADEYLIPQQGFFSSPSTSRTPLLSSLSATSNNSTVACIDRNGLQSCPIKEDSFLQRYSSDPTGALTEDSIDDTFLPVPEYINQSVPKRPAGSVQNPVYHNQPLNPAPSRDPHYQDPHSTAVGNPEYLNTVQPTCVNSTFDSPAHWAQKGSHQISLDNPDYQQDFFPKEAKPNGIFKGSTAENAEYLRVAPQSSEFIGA
Sequence of EGFR L858R/C797S (P00533 25-1210 C797S/L858R): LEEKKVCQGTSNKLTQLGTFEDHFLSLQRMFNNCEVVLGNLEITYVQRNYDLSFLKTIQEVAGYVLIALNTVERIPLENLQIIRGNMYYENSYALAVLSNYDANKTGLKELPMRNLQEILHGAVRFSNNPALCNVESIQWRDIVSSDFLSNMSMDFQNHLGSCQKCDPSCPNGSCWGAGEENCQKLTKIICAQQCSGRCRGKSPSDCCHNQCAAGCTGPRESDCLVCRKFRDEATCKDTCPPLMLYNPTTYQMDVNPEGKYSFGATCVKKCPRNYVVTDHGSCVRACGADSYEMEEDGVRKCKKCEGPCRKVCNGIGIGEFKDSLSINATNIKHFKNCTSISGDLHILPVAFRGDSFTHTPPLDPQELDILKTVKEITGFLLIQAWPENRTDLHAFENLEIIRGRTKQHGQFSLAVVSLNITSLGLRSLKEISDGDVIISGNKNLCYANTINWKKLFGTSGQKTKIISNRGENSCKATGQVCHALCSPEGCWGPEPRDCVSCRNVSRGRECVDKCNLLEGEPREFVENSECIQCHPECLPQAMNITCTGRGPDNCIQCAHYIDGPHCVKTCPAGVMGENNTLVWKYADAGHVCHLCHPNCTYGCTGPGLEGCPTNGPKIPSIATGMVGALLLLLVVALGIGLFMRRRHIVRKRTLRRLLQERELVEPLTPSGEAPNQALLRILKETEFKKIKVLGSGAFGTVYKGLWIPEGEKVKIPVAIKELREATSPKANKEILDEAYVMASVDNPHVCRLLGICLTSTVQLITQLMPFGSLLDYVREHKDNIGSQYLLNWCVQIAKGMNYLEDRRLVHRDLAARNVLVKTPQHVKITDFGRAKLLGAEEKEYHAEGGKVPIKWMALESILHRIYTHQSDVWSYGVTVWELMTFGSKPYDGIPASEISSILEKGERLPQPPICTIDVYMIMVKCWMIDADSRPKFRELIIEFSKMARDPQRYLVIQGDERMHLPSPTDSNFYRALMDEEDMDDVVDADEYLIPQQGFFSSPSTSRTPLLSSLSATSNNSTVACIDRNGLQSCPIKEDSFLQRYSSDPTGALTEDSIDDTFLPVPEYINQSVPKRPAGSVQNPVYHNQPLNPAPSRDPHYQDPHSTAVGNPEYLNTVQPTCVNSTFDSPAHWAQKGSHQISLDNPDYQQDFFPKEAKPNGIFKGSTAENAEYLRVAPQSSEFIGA
Sequence of EGFR wildtype (WT) (P00533 25-1210): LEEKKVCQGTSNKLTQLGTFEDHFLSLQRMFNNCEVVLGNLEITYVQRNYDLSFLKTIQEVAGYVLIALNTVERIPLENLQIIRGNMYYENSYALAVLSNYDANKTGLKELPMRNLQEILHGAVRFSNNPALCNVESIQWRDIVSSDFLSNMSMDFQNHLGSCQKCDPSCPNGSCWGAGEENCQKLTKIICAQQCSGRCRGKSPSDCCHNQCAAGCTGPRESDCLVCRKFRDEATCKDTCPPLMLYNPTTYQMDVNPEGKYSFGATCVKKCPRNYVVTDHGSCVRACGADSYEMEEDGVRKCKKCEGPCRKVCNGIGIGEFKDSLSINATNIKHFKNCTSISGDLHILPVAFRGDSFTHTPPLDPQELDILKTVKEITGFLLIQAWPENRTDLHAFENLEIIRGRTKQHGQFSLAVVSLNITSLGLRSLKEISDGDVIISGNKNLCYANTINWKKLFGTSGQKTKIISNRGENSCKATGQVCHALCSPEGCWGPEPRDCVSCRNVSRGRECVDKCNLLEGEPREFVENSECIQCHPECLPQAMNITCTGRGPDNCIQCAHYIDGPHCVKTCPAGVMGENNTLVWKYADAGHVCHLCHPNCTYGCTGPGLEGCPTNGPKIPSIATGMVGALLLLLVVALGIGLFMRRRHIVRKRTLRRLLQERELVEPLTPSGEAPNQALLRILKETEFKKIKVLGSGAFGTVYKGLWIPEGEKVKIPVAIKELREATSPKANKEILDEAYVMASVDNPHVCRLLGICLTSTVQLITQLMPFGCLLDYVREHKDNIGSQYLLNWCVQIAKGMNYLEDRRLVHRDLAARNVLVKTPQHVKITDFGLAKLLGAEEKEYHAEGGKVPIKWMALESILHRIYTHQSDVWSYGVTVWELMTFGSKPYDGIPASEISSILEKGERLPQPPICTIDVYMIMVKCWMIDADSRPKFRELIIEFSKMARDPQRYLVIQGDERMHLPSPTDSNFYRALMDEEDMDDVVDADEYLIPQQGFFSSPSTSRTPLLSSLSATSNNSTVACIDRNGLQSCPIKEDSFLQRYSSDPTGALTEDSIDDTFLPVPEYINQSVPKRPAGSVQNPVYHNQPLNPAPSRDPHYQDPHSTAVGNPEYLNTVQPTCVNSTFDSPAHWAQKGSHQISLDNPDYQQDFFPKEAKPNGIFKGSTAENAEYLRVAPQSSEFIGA

In the case of `O=S(=O)(C1CC1)n1cc(-c2nccc(Nc3cc(NC4CCCC4O)c(-c4ccn(C(F)F)n4)cn3)n2)cn1` (stereo not drawn) [Example 29, 2-((2-((2-(1-(Cyclopropylsulfonyl)-1H-pyrazol-4-yl)pyrimidin-4-yl)amino)-5-(1-(difluoromethyl)-1H-pyrazol-3-yl)pyridin-4-yl)amino)cyclopentan-1-ol], the IC50 in test [1] (setting [6]) is over 10000 nM; in test [1] (setting [7]), 218 nM; in test [2] (setting [8]), 590 nM; in test [2] (setting [9]), 26.2 nM; in test [3] (setting [10]) it was 2.4 nM; in test [3] (setting [11]), 1.1 nM. The IC50 in test [4] (setting [12]) amounted to 77.1 nM; in test [4] (setting [13]), 89.9 nM; in test [5] (setting [14]) it was 7.7 nM; in test [5] (setting [15]), 1 nM.

Take `C[C@]1(O)CC[C@@H](Nc2cc(Nc3ccnc(-c4cnc5c(c4)CCCO5)n3)ncc2-c2ccn(C(F)F)n2)CC1` [Example 176, (1s,4s)-4-((5-(1-(Difluoromethyl)-1H-pyrazol-3-yl)-2-((2-(3,4-dihydro-2H-pyrano[2,3-b]pyridin-6-yl)pyrimidin-4-yl)amino)pyridin-4-yl)amino)-1-methylcyclohexan-1-ol]: the IC50 turned out to be 752 nM in test [1] (setting [7]); 10.4 nM in test [2] (setting [9]); 0.3 nM in test [3] (setting [11]); 264 nM in test [4] (setting [13]); 0.04 nM in test [5] (setting [15]).

Consider `COc1ncc(-c2nccc(Nc3cc(N[C@H]4CC[C@@](C)(O)CC4)c(-c4ccn(C(F)F)n4)cn3)n2)cc1F` [Example 178, (1s,4s)-4-((5-(1-(Difluoromethyl)-1H-pyrazol-3-yl)-2-((2-(5-fluoro-6-methoxypyridin-3-yl)pyrimidin-4-yl)amino)pyridin-4-yl)amino)-1-methylcyclohexan-1-ol], for which the IC50 was found to be 2110 nM in test [1] (setting [7]); 3 nM in test [2] (setting [9]); 46.2 nM in test [3] (setting [11]); 102 nM in test [4] (setting [13]); 16.8 nM in test [5] (setting [15]).

Take `C[C@]1(O)CC[C@@H](Nc2cc(Nc3ccnc(-c4cnn(S(=O)(=O)C5CC5)c4)n3)ncc2-c2ccn(CC(F)F)n2)CC1` [Example 241, (1s,4s)-4-((2-((2-(1-(Cyclopropylsulfonyl)-1H-pyrazol-4-yl)pyrimidin-4-yl)amino)-5-(1-(2,2-difluoroethyl)-1H-pyrazol-3-yl)pyridin-4-yl)amino)-1-methylcyclohexan-1-ol]: the IC50 was 2980 nM in test [1] (setting [6]); 5 nM in test [1] (setting [7]); 0.5 nM in test [2] (setting [9]); 0.6 nM in test [3] (setting [10]); 0.5 nM in test [3] (setting [11]); 0.5 nM in test [4] (setting [12]). In addition, the results for the IC50 in test [4] (setting [13]), in test [5] (setting [14]) and in test [5] (setting [15]) were 0.5 nM, 0.7 nM and 0.3 nM, respectively.

With `O=S(=O)(C1CC1)n1cc(-c2nccc(Nc3cc(N[C@H]4CC[C@@H](F)CC4)c(-c4nc(C(F)F)cs4)cn3)n2)cn1` [Example 164, N^2-(2-(1-(Cyclopropylsulfonyl)-1H-pyrazol-4-yl)pyrimidin-4-yl)-5-(4-(difluoromethyl)thiazol-2-yl)-N^4-((1s,4s)-4-fluorocyclohexyl)pyridine-2,4-diamine], the IC50 in test [1] (setting [7]) turned out to be 1210 nM; in test [2] (setting [9]), 135 nM; in test [3] (setting [11]), 8.8 nM; in test [4] (setting [13]) it was 370 nM; in test [5] (setting [15]), 4.8 nM.

Consider `Cn1ccc(-c2cnc(Nc3ccnc(-c4cnn(S(=O)(=O)C5CC5)c4)n3)cc2NC[C@H]2CC[C@H](NCC(F)F)CC2)n1` [Example 129, N^2-(2-(1-(Cyclopropylsulfonyl)-1H-pyrazol-4-yl)pyrimidin-4-yl)-N^4-(((1r,4r)-4-((2,2-difluoroethyl)amino)cyclohexyl)methyl)-5-(1-methyl-1H-pyrazol-3-yl)pyridine-2,4-diamine], for which the IC50 in test [1] (setting [6]) was over 10000 nM; in test [2] (setting [8]), 14.3 nM; in test [3] (setting [10]), 0.7 nM; in test [4] (setting [12]), 2 nM; in test [5] (setting [14]), 0.7 nM.

`O=S(=O)(C1CC1)n1cc(-c2nccc(Nc3cc(NCC4CC5(CNC5)C4)c(-c4ccn(C(F)F)n4)cn3)n2)cn1` [Example 26, N^4-((2-Azaspiro[3.3]heptan-6-yl)methyl)-N^2-(2-(1-(cyclopropylsulfonyl)-1H-pyrazol-4-yl)pyrimidin-4-yl)-5-(1-(difluoromethyl)-1H-pyrazol-3-yl)pyridine-2,4-diamine]: the IC50 amounted to 3740 nM in test [1] (setting [6]); 6.7 nM in test [1] (setting [7]); 26.5 nM in test [2] (setting [8]); 2.3 nM in test [2] (setting [9]); 0.2 nM in test [3] (setting [10]); 0.1 nM in test [3] (setting [11]). In addition, the IC50 in test [4] (setting [12]) is 1.8 nM; in test [4] (setting [13]), 1.3 nM; in test [5] (setting [14]), 0.3 nM; in test [5] (setting [15]), 0.1 nM.

In the case of `O=S(=O)(C1CC1)n1cc(-c2nccc(Nc3cc(N[C@H]4CC[C@@H](O)CC4)c(-c4ccn(C(F)F)n4)cn3)n2)cn1` [Example 80, (1s,4s)-4-((2-((2-(1-(Cyclopropylsulfonyl)-1H-pyrazol-4-yl)pyrimidin-4-yl)amino)-5-(1-(difluoromethyl)-1H-pyrazol-3-yl)pyridin-4-yl)amino)cyclohexan-1-ol], the IC50 was determined as 214 nM in test [1] (setting [6]); 1.4 nM in test [2] (setting [8]); 0.7 nM in test [3] (setting [10]); 1.2 nM in test [4] (setting [12]); 0.8 nM in test [5] (setting [14]).

`CN(C)C[C@H]1CC[C@@H](Nc2cc(Nc3ccnc(-c4cnn(S(=O)(=O)C5CC5)c4)n3)ncc2-c2ccn(CC(F)(F)F)n2)CC1` [Example 266, N^2-(2-(1-(Cyclopropylsulfonyl)-1H-pyrazol-4-yl)pyrimidin-4-yl)-N^4-((1s,4s)-4-((dimethylamino)methyl)cyclohexyl)-5-(1-(2,2,2-trifluoroethyl)-1H-pyrazol-3-yl)pyridine-2,4-diamine]: the IC50 in test [1] (setting [6]) is 206 nM; in test [2] (setting [8]) it was 0.9 nM; in test [3] (setting [10]), 0.1 nM; in test [4] (setting [12]), 0.3 nM; in test [5] (setting [14]), 0.1 nM.

Turning to `Cc1nn(CC(F)(F)F)cc1-c1nccc(Nc2cc(N[C@H]3CC[C@@](C)(O)CC3)c(-c3ccn(C(F)F)n3)cn2)n1` [Example 320, (1s,4s)-4-((5-(1-(Difluoromethyl)-1H-pyrazol-3-yl)-2-((2-(3-methyl-1-(2,2,2-trifluoroethyl)-1H-pyrazol-4-yl)pyrimidin-4-yl)amino)pyridin-4-yl)amino)-1-methylcyclohexan-1-ol], the IC50 in test [1] (setting [7]) is 33.5 nM; in test [2] (setting [9]), 1.8 nM; in test [3] (setting [11]), 0.4 nM; in test [4] (setting [13]) it was 3.9 nM; in test [5] (setting [15]) it was 0.2 nM.

Take `O=S(=O)(C1CC1)n1cc(-c2nccc(Nc3cc(NC4CCCN(CCF)C4)c(-c4ccn(C(F)F)n4)cn3)n2)cn1` (stereo not drawn) [Example 218, N^2-(2-(1-(Cyclopropylsulfonyl)-1H-pyrazol-4-yl)pyrimidin-4-yl)-5-(1-(difluoromethyl)-1H-pyrazol-3-yl)-N^4-(1-(2-fluoroethyl)piperidin-3-yl)pyridine-2,4-diamine]: the IC50 in test [1] (setting [7]) is 233 nM; in test [2] (setting [9]) it was 30.7 nM; in test [3] (setting [11]), 0.5 nM; in test [4] (setting [13]), 43.9 nM; in test [5] (setting [15]), 0.8 nM.

As for `Cn1ccc(-c2cnc(Nc3ccnc(-c4cnn(S(=O)(=O)C5CC5)c4)n3)cc2N[C@H]2CC[C@H](CO)CC2)n1` [Example 229, ((1r,4r)-4-((2-((2-(1-(Cyclopropylsulfonyl)-1H-pyrazol-4-yl)pyrimidin-4-yl)amino)-5-(1-methyl-1H-pyrazol-3-yl)pyridin-4-yl)amino)cyclohexyl)methanol], the IC50 is over 10000 nM in test [1] (setting [6]); 10 nM in test [1] (setting [7]); 43.9 nM in test [2] (setting [8]); 1.4 nM in test [2] (setting [9]); 0.1 nM in test [3] (setting [10]); 0.8 nM in test [4] (setting [12]). In addition, the results for the IC50 in test [4] (setting [13]), in test [5] (setting [14]) and in test [5] (setting [15]) were 0.4 nM, 1.4 nM and 0.1 nM, respectively.

In the case of `OCC[C@H]1CC[C@@H](Nc2cc(Nc3ccnc(-c4cnn(CC(F)F)c4)n3)ncc2-c2ccn(C(F)F)n2)CC1` [Example 146, 2-((1s,4s)-4-((2-((2-(1-(2,2-Difluoroethyl)-1H-pyrazol-4-yl)pyrimidin-4-yl)amino)-5-(1-(difluoromethyl)-1H-pyrazol-3-yl)pyridin-4-yl)amino)cyclohexyl)ethan-1-ol], the IC50 in test [1] (setting [7]) was 19.9 nM; in test [2] (setting [9]) it was 4.7 nM; in test [3] (setting [11]) it was 1.1 nM; in test [4] (setting [13]) it was 10.8 nM; in test [5] (setting [15]), 0.4 nM.

On to `CC1(O)CCC(Oc2cc(Nc3ccnc(-c4cnn(S(=O)(=O)C5CC5)c4)n3)ncc2-c2ccn(C(F)F)n2)CC1` (stereo not drawn) [Example 68, 4-((2-((2-(1-(Cyclopropylsulfonyl)-1H-pyrazol-4-yl)pyrimidin-4-yl)amino)-5-(1-(difluoromethyl)-1H-pyrazol-3-yl)pyridin-4-yl)oxy)-1-methylcyclohexan-1-ol], for which the IC50 in test [1] (setting [6]) is over 10000 nM; in test [1] (setting [7]), 95.8 nM; in test [2] (setting [8]) it was 55.9 nM; in test [2] (setting [9]) it was 6.3 nM; in test [3] (setting [10]) it was 0.6 nM; in test [3] (setting [11]), 0.5 nM. Also, the IC50 in test [4] (setting [12]) amounted to 6.1 nM; in test [4] (setting [13]), 7.3 nM; in test [5] (setting [14]), 1.7 nM; in test [5] (setting [15]), 0.2 nM.
